{
  "source": "PubChem BioAssay AID1259407",
  "about": "(Chemical Carcinogenesis Research Information System (CCRIS), 2018)",
  "tested_on": "CCRIS mutagenicity, Ames/micronucleus/aberration tests",
  "test": "CCRIS mutagenicity studies",
  "key": {"[1]": {"conditions": "Test System: AMES SALMONELLA TYPHIMURIUM, Strain/Indicator: TA100, Metabolic Activation: NONE, Method: STANDARD PLATE"}, "[2]": {"conditions": "Test System: AMES SALMONELLA TYPHIMURIUM, Strain/Indicator: TA100, Metabolic Activation: RAT, LIVER, S-9, AROCLOR 1254, Method: STANDARD PLATE"}, "[3]": {"conditions": "Test System: AMES SALMONELLA TYPHIMURIUM, Strain/Indicator: TA100, Metabolic Activation: NONE, Method: PREINCUBATION"}},
  "note": "The source made the active and inactive calls. No rule for the calls is given here.",
  "data": [
    {"smiles": "O=[N+]([O-])c1cnc(CO)n1CCO", "values": [
      {"measurement": "mutagenic call", "setting": "[1]", "result": "active; positive"},
      {"measurement": "mutagenic call", "setting": "[2]", "result": "active; positive"}
    ]},
    {"smiles": "Cc1ccc2cc3c(ccc4ccccc43)c3c2c1CC3OS(=O)(=O)O", "note": "(stereo unspecified)", "values": [
      {"measurement": "mutagenic call", "setting": "Test System: AMES SALMONELLA TYPHIMURIUM, Strain/Indicator: TA98, Metabolic Activation: NONE, Method: PREINCUBATION", "result": "active; positive"},
      {"measurement": "mutagenic call", "setting": "[3]", "result": "active; positive"}
    ]},
    {"smiles": "O=CC1CO1", "note": "(stereo unspecified)", "values": [
      {"measurement": "mutagenic call", "setting": "[1]", "result": "active; positive"},
      {"measurement": "mutagenic call", "setting": "Test System: AMES SALMONELLA TYPHIMURIUM, Strain/Indicator: TA1535, Metabolic Activation: NONE, Method: STANDARD PLATE", "result": "active; positive"},
      {"measurement": "mutagenic call", "setting": "Test System: E. COLI, Strain/Indicator: WP2 UVRA, Metabolic Activation: HAMSTER, LIVER, S-9, AROCLOR 1254, Method: PREINCUBATION", "result": "active; positive"},
      {"measurement": "mutagenic call", "setting": "Test System: E. COLI, Strain/Indicator: WP2 UVRA, Metabolic Activation: HAMSTER, LIVER, S-9, AROCLOR 1254, Method: STANDARD PLATE", "result": "active; positive"},
      {"measurement": "mutagenic call", "setting": "Test System: E. COLI, Strain/Indicator: WP2 UVRA, Metabolic Activation: HAMSTER, LIVER, S-9, Method: PREINCUBATION", "result": "active; positive"},
      {"measurement": "mutagenic call", "setting": "Test System: E. COLI, Strain/Indicator: WP2 UVRA, Metabolic Activation: HAMSTER, LIVER, S-9, Method: STANDARD PLATE", "result": "active; positive"},
      {"measurement": "mutagenic call", "setting": "Test System: E. COLI, Strain/Indicator: WP2 UVRA, Metabolic Activation: MOUSE, LIVER, S-9, AROCLOR 1254, Method: PREINCUBATION", "result": "active; positive"},
      {"measurement": "mutagenic call", "setting": "Test System: E. COLI, Strain/Indicator: WP2 UVRA, Metabolic Activation: MOUSE, LIVER, S-9, AROCLOR 1254, Method: STANDARD PLATE", "result": "active; positive"},
      {"measurement": "mutagenic call", "setting": "Test System: E. COLI, Strain/Indicator: WP2 UVRA, Metabolic Activation: MOUSE, LIVER, S-9, Method: PREINCUBATION", "result": "active; positive"},
      {"measurement": "mutagenic call", "setting": "Test System: E. COLI, Strain/Indicator: WP2 UVRA, Metabolic Activation: MOUSE, LIVER, S-9, Method: STANDARD PLATE", "result": "active; positive"},
      {"measurement": "mutagenic call", "setting": "Test System: E. COLI, Strain/Indicator: WP2 UVRA, Metabolic Activation: NONE, Method: PREINCUBATION", "result": "active; positive"},
      {"measurement": "mutagenic call", "setting": "Test System: E. COLI, Strain/Indicator: WP2 UVRA, Metabolic Activation: NONE, Method: STANDARD PLATE", "result": "active; positive"},
      {"measurement": "mutagenic call", "setting": "Test System: E. COLI, Strain/Indicator: WP2 UVRA, Metabolic Activation: RAT, LIVER, S-9, AROCLOR 1254, Method: PREINCUBATION", "result": "active; positive"},
      {"measurement": "mutagenic call", "setting": "Test System: E. COLI, Strain/Indicator: WP2 UVRA, Metabolic Activation: RAT, LIVER, S-9, AROCLOR 1254, Method: STANDARD PLATE", "result": "active; positive"},
      {"measurement": "mutagenic call", "setting": "Test System: E. COLI, Strain/Indicator: WP2 UVRA, Metabolic Activation: RAT, LIVER, S-9, Method: PREINCUBATION", "result": "active; positive"},
      {"measurement": "mutagenic call", "setting": "Test System: E. COLI, Strain/Indicator: WP2 UVRA, Metabolic Activation: RAT, LIVER, S-9, Method: STANDARD PLATE", "result": "active; positive"},
      {"measurement": "mutagenic call", "setting": "Test System: UDS HUMAN FIBROBLASTS, Strain/Indicator: THY INCORP (NON-S-PHASE), Metabolic Activation: NONE, Method: LIQUID SCINTILLATION COUNTING", "result": "active; positive"}
    ]},
    {"smiles": "Cc1cc(O)cc2oc(=O)c3c(O)cc(O)cc3c12", "values": [
      {"measurement": "mutagenic call", "setting": "Test System: AMES SALMONELLA TYPHIMURIUM, Strain/Indicator: TA98, Metabolic Activation: NONE, Method: STANDARD PLATE", "result": "inactive; negative"},
      {"measurement": "mutagenic call", "setting": "Test System: AMES SALMONELLA TYPHIMURIUM, Strain/Indicator: TA98, Metabolic Activation: RAT LIVER S-9, AROCLOR 1254, Method: STANDARD PLATE", "result": "inactive; negative"},
      {"measurement": "mutagenic call", "setting": "Test System: AMES SALMONELLA TYPHIMURIUM, Strain/Indicator: TA98, Metabolic Activation: RAT, LIVER, S-9, AROCLOR 1254, Method: STANDARD PLATE", "result": "inactive; negative"},
      {"measurement": "mutagenic call", "setting": "[1]", "result": "inactive; negative"},
      {"measurement": "mutagenic call", "setting": "Test System: AMES SALMONELLA TYPHIMURIUM, Strain/Indicator: TA100, Metabolic Activation: RAT LIVER S-9, AROCLOR 1254, Method: STANDARD PLATE", "result": "inactive; negative"},
      {"measurement": "mutagenic call", "setting": "[2]", "result": "inactive; negative"},
      {"measurement": "mutagenic call", "setting": "Test System: Ames Salmonella typhimurium, Strain/Indicator: TA97, Metabolic Activation: None, Method: Standard plate", "result": "inactive; negative. nitrosation did not increase mutagenic activity"},
      {"measurement": "mutagenic call", "setting": "Test System: Ames Salmonella typhimurium, Strain/Indicator: TA97, Metabolic Activation: Rat, Liver, S-9, Aroclor 1254 (10%), Method: Standard plate", "result": "inactive; negative. nitrosation did not increase mutagenic activity"},
      {"measurement": "mutagenic call", "setting": "Test System: Ames Salmonella typhimurium, Strain/Indicator: TA102, Metabolic Activation: None, Method: Standard plate", "result": "active; positive. nitrosation led to mutagenic product"},
      {"measurement": "mutagenic call", "setting": "Test System: Ames Salmonella typhimurium, Strain/Indicator: TA102, Metabolic Activation: Rat, Liver, S-9, Aroclor 1254 (10%), Method: Standard plate", "result": "active; positive. nitrosation led to mutagenic product"},
      {"measurement": "mutagenic call", "setting": "Test System: Ames Salmonella typhimurium, Strain/Indicator: TA104, Metabolic Activation: None, Method: Standard plate", "result": "inactive; negative. nitrosation did not increase mutagenic activity"},
      {"measurement": "mutagenic call", "setting": "Test System: Ames Salmonella typhimurium, Strain/Indicator: TA104, Metabolic Activation: Rat, Liver, S-9, Aroclor 1254 (10%), Method: Standard plate", "result": "inactive; negative. nitrosation did not increase mutagenic activity"}
    ]},
    {"smiles": "Cc1cc(=O)oc2ccc3c(c12)C1(C)OOC1(C)O3", "note": "(stereo unspecified)", "values": [
      {"measurement": "mutagenic call", "setting": "[3]", "result": "active; positive"}
    ]},
    {"smiles": "Oc1ccc2c3ccccc3c3cc4ccccc4cc3c2c1", "values": [
      {"measurement": "mutagenic call", "setting": "Test System: AMES SALMONELLA TYPHIMURIUM, Strain/Indicator: TA100, Metabolic Activation: RAT, LIVER, S-9, AROCLOR 1254, Method: PREINCUBATION", "result": "active; positive"}
    ]},
    {"smiles": "Nc1nc(-c2cccnc2)cs1", "values": [
      {"measurement": "mutagenic call", "setting": "Test System: AMES SALMONELLA TYPHIMURIUM, Strain/Indicator: TA1538, Metabolic Activation: RAT, LIVER, S-9, AROCLOR 1254, Method: STANDARD PLATE", "result": "inactive; negative"}
    ]}
  ]
}
